{
  "source": "patent US20260258446A1",
  "about": "“SMALL MOLECULE ENHANCERS FOR ADENO-[…] PRODUCTION” (priority 2023, published 2026)",
  "key": {"[1]": {"test_system": "AAV8 production in Viral Production 2.0 cells (293-VP 2.0)", "assay": "AAV8 production by transient transfection, genome titer by dPCR", "assay_type": "cell-based, human", "experimental": "Candidate small molecules were selected via literature-based searches and encompassed general classes of epigenetic modifiers, PI3K inhibitors, cell cycle modulators, innate immune activators/inhibitors, proteosome inhibitors, kinase inhibitors, free fatty acids, endoplasmic reticulum stress inducers/inhibitors, and autophagy activators/inhibitors. Various candidate small molecule were analyzed in AAV2 or AAV8 production. The initial test concentrations of each small molecule were determined by previous uses of the molecules found in the literature for a variety of applications. For each candidate small molecule, cells were triple transfected with three plasmids encoding the rep/cap genes, gene of interest flanked by […] terminal repeats (ITR) and adenovirus helper molecules. The rep/cap plasmid encoded either AAV2 or AAV8 capsids. The plasmid DNA (pDNA) was combined with the TransIT-VirusGEN® transfection reagent and added to 293-derived suspension cells. The cells were then immediately treated with the small molecule. AAV production occurred over the course of 72 hours, after which virus was harvested. Genomes were assessed by digital PCR (dPCR), and capsids by a specific ELISA or homogeneous based luciferase assay utilizing capsid specific antibodies. The percentage of full capsids was calculated by dividing the total number of genomes by the total number of capsids. A small molecule was considered a successful enhancer of AAV production if it increased AAV as measured by viral genomes 1.5-fold over an untreated control and was not detrimental to the percentage of full capsids, or if it increased the percentage of full capsids 1.5-fold over an untreated control and was not detrimental to the total number of produced AAV as measured by viral genomes. The experimental design may identify small molecules that enhance AAV production.\nViral Production Cells 2.0 (293-VP 2.0; Thermo Fisher Cat. No. A49784) were maintained in Viral Production Media (VPM; Thermo Fisher Cat. No. A4817901) supplemented with 4 mM GlutaMAX™ (Thermo Fisher Cat. No. 35050061). Expi293F™ Cells (Thermo Fisher Cat. No. A14527) were maintained in Expi293™ Expression Medium (Thermo Fisher Cat. No. A1435101). Both cell lines were maintained at the supplier recommended 8% CO2 and 37° C. on a 2.5 cm orbital shaker at 125 rpm.\nThe day before transfection, cells were passaged to ensure the cells were actively dividing and would reach a density of 4.0-5.0×10^6 cells/mL the day of transfection. The day of transfection, cells were seeded in 6-well non-tissue culture treated plates (Corning, Cat. No. 351146) at a density of 3.0×10^6 cells/mL. A 1 mg/mL DNA solution composed of a 1:1:1 plasmid concentration ratio of a transfer vector (Agilent, Cat. No. 240074-51), an AAV2 RepCap Vector (Aldevron, Cat. No. pALD-AAV2) or an AAV5 RepCap Vector (Aldevron, Cat. No. pALD-AAV5) or an AAV8 RepCap vector (Genemedi, Cat. No. P-RC09) or an AAV9 RepCap vector (Genemedi, Cat. No. p-RC13), and a helper vector (Agilent Cat. No. 240071-54) was formed in water. For each milliliter of culture, 3 μL of TransIT-VirusGEN® (Mirus Bio LLC, Cat. No. MIR 6700) and 2 μg of DNA were added to a final volume of 100 μL Phosphate-buffered saline (PBS; Corning, Cat. No. 21-040-CV) for a final transfection reagent to DNA ratio of 1.5:1. This mixture was incubated at room temperature for 30 minutes to allow transfection complexes to form, after which 100 μL was added per milliliter of culture for a final complexation volume of 10%. In some instances, cells were transfected with 1 μL FectoVIR®-AAV (Polyplus, Cat. No. 101000044) per million cells and 1 μg DNA per million cells for a final transfection reagent to DNA ratio of 1:1, and a final complexation volume of 5%. In some instances, cells were transfected with 1 μL PEIPro® (Polyplus, Cat. No. 101000017) per million cells and 1 μg DNA per million cells for a final transfection reagent to DNA ratio of 1:1, and a final complexation volume of 10%. […]"}, "[2]": {"test_system": "AAV2 or AAV8 production in 293-derived suspension cells", "assay": "cells", "assay_type": "cell-based, human", "procedure": "Various candidate small molecule were analyzed in AAV2 or AAV8 production. […] For each candidate small molecule, cells were triple transfected with three plasmids encoding the rep/cap genes, gene of interest flanked by internal terminal repeats (ITR) and adenovirus helper molecules. The rep/cap plasmid encoded either AAV2 or AAV8 capsids. The plasmid DNA (pDNA) was combined with the TransIT-VirusGEN® transfection reagent and added to 293-derived suspension cells. The cells were then immediately treated with the small molecule. AAV production occurred over the course of 72 hours, after which virus was harvested. Genomes were assessed by digital PCR (dPCR), and capsids by a specific ELISA or homogeneous based luciferase assay utilizing capsid specific antibodies. The percentage of full capsids was calculated by dividing the total number of genomes by the total number of capsids. A small molecule was considered a successful enhancer of AAV production if it increased AAV as measured by viral genomes 1.5-fold over an untreated control and was not detrimental to the percentage of full capsids, or if it increased the percentage of full capsids 1.5-fold over an untreated control and was not detrimental to the total number of produced AAV as measured by viral genomes. […]"}, "[3]": {"conditions": "from about 0.5 μM to about 40 μM"}},
  "note": "Counter-ions that a name gives are not always drawn.",
  "data": [
    {"compound": "CC[C@@H]1C(=O)N(C)c2cnc(Nc3ccc(C(=O)NC4CCN(C)CC4)cc3OC)nc2N1C1CCCC1", "note": "[Compound A, (R)-4-((8-cyclopentyl-7-ethyl-5-methyl-6-oxo-5,6,7,8-tetrahydropteridin-2-yl)amino)-3-methoxy-N-(1-methylpiperidin-4-yl)benzamide]", "values": [
      {"measurement": "Successful enhancer of AAV8 production (genomes or % full capsids 1.5-fold over untreated control)", "setting": "[1]; from about 0.025 μM to about 1 μM", "result": "Successful enhancers"}
    ]},
    {"compound": "CN[C@H]1CCc2cc(OC)c(OC)c(OC)c2-c2ccc(OC)c(=O)cc21", "note": "[Compound B, (S)-1,2,3,10-tetramethoxy-7-(methylamino)-6,7-dihydrobenzo[a]heptalen-9 (5H)-one]", "values": [
      {"measurement": "Successful enhancer of AAV8 production (genomes or % full capsids 1.5-fold over untreated control)", "setting": "[1]; from about 0.0673 μM to about 0.2019 μM", "result": "Successful enhancers"}
    ]},
    {"compound": "CC(=O)O[C@@]12CO[C@@H]1C[C@H](O)[C@@]1(C)C(=O)[C@H](O)C3=C(C)[C@@H](OC(=O)[C@H](O)[C@@H](NC(=O)OC(C)(C)C)c4ccccc4)C[C@@](O)([C@@H](OC(=O)c4ccccc4)[C@H]21)C3(C)C", "note": "[Compound C, [(1S,2S,3R,4S,7R,9S, 10S, 12R, 15S)-4-acetyloxy-1,9,12-trihydroxy-15-[(2R,3S)-2-hydroxy-3-[(2-methylpropan-2-yl)oxycarbonylamino]-3-phenylpropanoyl]oxy-10,14,17,17-tetramethyl-11-oxo-6-oxatetracyclo[11.3.1.0^3,10.0^4,7]heptadec-13-en-2-yl]benzoate]", "values": [
      {"measurement": "Successful enhancer of AAV8 production (genomes or % full capsids 1.5-fold over untreated control)", "setting": "[1]; from 1 μM to about 20 μM", "result": "Successful enhancers"},
      {"measurement": "Increase in AAV8 titers (\"Top Hits\")", "setting": "[1]; from about 1 μM to about 20 μM", "result": "highest increase in AAV8 titers"}
    ]},
    {"compound": "CCn1cc(-c2ccnc3[nH]c(-c4cccc(CN(C)C)c4)cc23)c(-c2ccc(NC(=O)N(C)C)cc2)n1", "note": "[Compound D, 3-(4-(4-(2-(3-((dimethylamino)methyl)phenyl)-1H-pyrrolo[2,3-b]pyridin-4-yl)-1-ethyl-1H-pyrazol-3-yl)phenyl)-1,1-dimethylurea]", "values": [
      {"measurement": "Successful enhancer of AAV8 production (genomes or % full capsids 1.5-fold over untreated control)", "setting": "[1]; about 0.05 μM", "result": "Successful enhancers"},
      {"measurement": "fold induction at 0.05 µM", "setting": "[2]; Homo sapiens, 72 h, read-out: Fold increase in genomes over no enhancer control", "result": "1.57 to 1.91"}
    ]},
    {"compound": "CC(=O)O[C@H]1C(=O)[C@@]2(C)[C@H]([C@H](OC(=O)c3ccccc3)[C@]3(O)C[C@H](OC(=O)[C@H](O)[C@@H](NC(=O)c4ccccc4)c4ccccc4)C(C)=C1C3(C)C)[C@]1(OC(C)=O)CO[C@@H]1C[C@@H]2O", "note": "[Compound F, [(1S,2S,3R,4S,7R,9S,10S,12R, 15S)-4,12-diacetyloxy-15-[(2R,3S)-3-benzamido-2-hydroxy-3-phenylpropanoyl]oxy-1,9-dihydroxy-10,14,17,17-tetramethyl-11-oxo-6-oxatetracyclo[11.3.1.0^3,10.0^4,7]heptadec-13-en-2-yl]benzoate]", "values": [
      {"measurement": "Increase in AAV8 titers (\"Top Hits\")", "setting": "[1]; [3]", "result": "highest increase in AAV8 titers"},
      {"measurement": "Successful enhancer of AAV8 production (genomes or % full capsids 1.5-fold over untreated control)", "setting": "[1]; [3]", "result": "Successful enhancers"}
    ]},
    {"compound": "CC(=O)NCC(=O)N1[C@@H]2CC[C@H]1c1ccc(Nc3ncc(C(F)(F)F)c(NC4CCC4)n3)cc12", "note": "[Compound G, N-[2-[(1R,8S)-4-[[4-(cyclobutylamino)-5-(trifluoromethyl)pyrimidin-2-yl]amino]-11-azatricyclo[6.2.1.0^2,7]undeca-2 (7),3,5-trien-11-yl]-2-oxoethyl]acetamide]", "values": [
      {"measurement": "Successful enhancer of AAV8 production (genomes or % full capsids 1.5-fold over untreated control)", "setting": "[1]; from about 0.02 μM to about 0.5 μM", "result": "Successful enhancers"}
    ]},
    {"compound": "O=C(CCCCCCC(=O)Nc1ccccc1)NO", "note": "[SAHA, suberoylanilide hydroxamic acid]", "values": [
      {"measurement": "Successful enhancer of AAV8 production (genomes or % full capsids 1.5-fold over untreated control)", "setting": "[1]; from about 0.5 μM to about 1 μM", "result": "Successful enhancers"}
    ]},
    {"compound": "CCC(=O)[O-].[Na+]", "note": "[Sodium Propionate]", "values": [
      {"measurement": "Fold increase in genomes over no enhancer control", "setting": "[2]; 5000 μM-10000 μM", "result": "1.20-1.48 fold"}
    ]},
    {"compound": "CCCC(CCC)C(=O)[O-].[Na+]", "note": "[Valproic Acid Sodium Salt]", "values": [
      {"measurement": "Successful enhancer of AAV8 production (genomes or % full capsids 1.5-fold over untreated control)", "setting": "[1]; from about 400 μM to about 2500 μM", "result": "Successful enhancers"}
    ]},
    {"compound": "CC[C@]1(O)C[C@@H]2CN(CCc3c([nH]c4ccccc34)[C@@](C(=O)OC)(c3cc4c(cc3OC)N(C)[C@H]3[C@@](O)(C(=O)OC)[C@H](OC(C)=O)[C@]5(CC)C=CCN6CC[C@]43[C@@H]65)C2)C1", "note": "[Vinblastine Sulfate]", "values": [
      {"measurement": "Successful enhancer of AAV8 production (genomes or % full capsids 1.5-fold over untreated control)", "setting": "[1]; from about 2.5 μM to about 15 μM", "result": "Successful enhancers"}
    ]}
  ]
}
